Experimental data published in ChEMBL document CHEMBL1201862, “PubChem BioAssay data set” (2004).
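A five-concentration, 48-hour dose response in 96-well plates underlies each endpoint, interpolated linearly between surrounding concentrations. Here, GI50 denotes the concentration required for 50% inhibition of growth.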 Calls of active or inactive are those of the source. No stated cut-off is given here; in the data, active = GI50 up to about 1.1 µM and inactive = higher.

How the values were obtained:
Experiment in all cases: NCI-60 cell line screen, 48 h
[1] = system: A498
[2] = system: CAKI-1
[3] = system: EKVX
[4] = system: HCC 2998
[5] = system: HCT-116
[6] = system: HCT-15
[7] = system: HOP-62
[8] = system: KM12
[9] = system: LOX IMVI
[10] = system: MOLT-4
[11] = system: Malme-3M
[12] = system: NCI-H23
[13] = system: NCI-H522
[14] = system: OVCAR-4
[15] = system: SF-295
[16] = system: SK-MEL-28
[17] = system: SK-OV-3
[18] = system: SW-620
[19] = system: U-251
[20] = system: UACC-62

| Compound | GI50 [1] | GI50 [2] | GI50 [3] | GI50 [4] | GI50 [5] | GI50 [6] | GI50 [7] | GI50 [8] | GI50 [9] | GI50 [10] | GI50 [11] | GI50 [12] | GI50 [13] | GI50 [14] | GI50 [15] | GI50 [16] | GI50 [17] | GI50 [18] | GI50 [19] | GI50 [20] |
| --- | --- | --- | --- | --- | --- | --- | --- | --- | --- | --- | --- | --- | --- | --- | --- | --- | --- | --- | --- | --- |
| Cc1c(N=NN(C)C)cc[n+]([O-])c1C | > 100 µM (inactive) | > 100 µM (inactive) | > 100 µM (inactive) | > 100 µM (inactive) | > 100 µM (inactive) | > 100 µM | > 100 µM (inactive) | > 100 µM (inactive) | > 100 µM (inactive) | > 100 µM (inactive) | > 100 µM (inactive) | > 100 µM (inactive) | > 100 µM (inactive) | > 100 µM (inactive) | > 100 µM (inactive) | > 100 µM (inactive) | > 100 µM (inactive) | > 100 µM (inactive) | > 100 µM (inactive) | > 100 µM (inactive) |
| O=C1Oc2ccc([N+](=O)[O-])cc2N/C1=C\C(=O)c1ccccc1 | > 100 µM (inactive) | > 100 µM (inactive) | > 100 µM (inactive) | 28.1 µM (inactive) | > 100 µM (inactive) | > 100 µM | > 100 µM (inactive) | 55.1 µM (inactive) | > 100 µM (inactive) | > 100 µM (inactive) | > 100 µM (inactive) | > 100 µM (inactive) | 76.2 µM (inactive) | > 100 µM (inactive) | > 100 µM (inactive) | > 100 µM (inactive) | > 100 µM (inactive) | > 100 µM (inactive) | 78.5 µM (inactive) | > 100 µM (inactive) |
| [N-]=[N+]=Nc1c(C=O)c(=O)n2c3c(cccc13)CCC2 | 13.6 µM (inactive) | 2.94 µM (inactive) | 11.1 µM (inactive) | 16.9 µM (inactive) | 3.15 µM (inactive) | 3.27 µM | 18 µM (inactive) | 17.5 µM (inactive) | 10.3 µM (inactive) | 1.24 µM (inactive) | 1.84 µM (inactive) | 4.26 µM (inactive) | 2.13 µM (inactive) | 2.24 µM (inactive) | 25.9 µM (inactive) | 11.5 µM (inactive) | 19 µM (inactive) | 1.39 µM (inactive) | 13.6 µM (inactive) | 12.8 µM (inactive) |
| C=C/C(C)=C/[C@H](C)C(=O)C[C@H](O)CC1CC(=O)NC(=O)C1 | 30.9 µM (inactive) | 13.6 µM (inactive) | 24.1 µM (inactive) | 20.2 µM (inactive) | 40.3 µM (inactive) | 44.7 µM | 19.2 µM (inactive) | 32.7 µM (inactive) | 43.1 µM (inactive) | 19.8 µM (inactive) | 16 µM (inactive) | 36.9 µM (inactive) | 21.2 µM (inactive) | 19.6 µM (inactive) | 36.1 µM (inactive) | 28.6 µM (inactive) | > 41.9 µM (inactive) | 31.5 µM (inactive) | 34.5 µM (inactive) | 37.2 µM (inactive) |
| CCCCOP(C)(=O)C(NC(=O)OCC)(C(F)(F)F)C(F)(F)F (stereo not given) | > 100 µM (inactive) | > 100 µM (inactive) | > 100 µM (inactive) | > 100 µM (inactive) | > 100 µM (inactive) | > 100 µM | > 100 µM (inactive) | > 100 µM (inactive) | > 100 µM (inactive) | > 100 µM (inactive) | > 100 µM (inactive) | > 100 µM (inactive) | 65.8 µM (inactive) | > 100 µM (inactive) | > 100 µM (inactive) | > 100 µM (inactive) | > 100 µM (inactive) | > 100 µM (inactive) | > 100 µM (inactive) | > 100 µM (inactive) |
| Nc1nnc(N)n1NC(=O)C(=O)Nc1ccc([N+](=O)[O-])cc1 | > 100 µM (inactive) | > 100 µM (inactive) | > 100 µM (inactive) | > 100 µM (inactive) | > 100 µM (inactive) | > 100 µM | > 100 µM (inactive) | > 100 µM (inactive) | > 100 µM (inactive) | > 100 µM (inactive) | > 100 µM (inactive) | > 100 µM (inactive) | > 100 µM (inactive) | > 100 µM (inactive) | > 100 µM (inactive) | > 100 µM (inactive) | > 100 µM (inactive) | > 100 µM (inactive) | > 100 µM (inactive) | 49.1 µM (inactive) |
| O=c1cnn(C2OC(CO)C(O)C2O)c(=S)[nH]1 (stereo not given) | > 100 µM (inactive) | 2.55 µM (inactive) | > 100 µM (inactive) | > 87.1 µM (inactive) | 1.67 µM (inactive) | 2.09 µM | > 63.7 µM (inactive) | 22.3 µM (inactive) | 1.24 µM (inactive) | 0.938 µM (active) | > 77.8 µM (inactive) | > 94 µM (inactive) | 16.4 µM (inactive) | > 100 µM (inactive) | 11.9 µM (inactive) | > 100 µM (inactive) | > 100 µM (inactive) | 5.21 µM (inactive) | 3.03 µM (inactive) | 19.4 µM (inactive) |
| O=Cc1cn(CCCCCCCCn2cc(C=O)c3ccccc32)c2ccccc12 | 1.63 µM (inactive) | > 10 µM (inactive) | > 10 µM (inactive) | > 10 µM (inactive) | 7.4 µM (inactive) | > 10 µM | > 10 µM (inactive) | > 10 µM (inactive) | 7.57 µM (inactive) | 6.37 µM (inactive) | > 10 µM (inactive) | 2.19 µM (inactive) | > 10 µM (inactive) | > 10 µM (inactive) | 6.41 µM (inactive) | > 10 µM (inactive) | > 10 µM (inactive) | > 10 µM (inactive) | > 10 µM (inactive) | > 10 µM (inactive) |
| O=C1C(Cl)=C(N2CCC[C@H]2CO)C(=O)c2c(O)ccc(O)c21 | > 10 µM (inactive) | 1.66 µM (inactive) | 9.16 µM (inactive) | 4.55 µM (inactive) | 1.64 µM (inactive) | 1.95 µM | > 10 µM (inactive) | 4.34 µM (inactive) | 2.09 µM (inactive) | 0.337 µM (active) | 1.7 µM (inactive) | 2.29 µM (inactive) | 0.104 µM (active) | 2.16 µM (inactive) | > 10 µM (inactive) | 1.55 µM (inactive) | > 10 µM (inactive) | 1.7 µM (inactive) | > 10 µM (inactive) | 2.04 µM (inactive) |
| C/C([O-])=C(/c1nc(-c2ccc([N+](=O)[O-])o2)no1)[n+]1cc(C)ccc1C | 18.3 µM (inactive) | 14.3 µM (inactive) | 58.6 µM (inactive) | 13 µM (inactive) | 6.25 µM (inactive) | 7.03 µM | 22.7 µM (inactive) | 5.82 µM (inactive) | 5.94 µM (inactive) | > 100 µM (inactive) | 14.3 µM (inactive) | 12.1 µM (inactive) | 3.57 µM (inactive) | 25.1 µM (inactive) | 11.7 µM (inactive) | 12.7 µM (inactive) | 35.6 µM (inactive) | 5.31 µM (inactive) | 8.11 µM (inactive) | 7.21 µM (inactive) |
| COc1cc(C2c3cc4c(cc3[C@@H](Nc3cccc(C(C)=O)c3)C3COC(=O)[C@H]23)OCO4)cc(OC)c1O (stereo not given in full) | 0.236 µM (active) | 0.108 µM (active) | 2.21 µM (inactive) | 1.34 µM (inactive) | 0.664 µM (active) | 0.307 µM | 0.122 µM (active) | 1.59 µM (inactive) | 0.39 µM (active) | < 0.01 µM (active) | 1.28 µM (inactive) | 0.264 µM (active) | 1.39 µM (inactive) | 6.17 µM (inactive) | 0.126 µM (active) | 3.01 µM (inactive) | 0.71 µM (active) | 0.2 µM (active) | 0.245 µM (active) | 0.233 µM (active) |
| O=C1Cc2c(-c3ccccc3)cc(-c3cccc(Cl)c3)nc2-c2ccccc2N1 | 4.82 µM (inactive) | 1.82 µM (inactive) | 2.29 µM (inactive) | 2.09 µM (inactive) | 1.6 µM (inactive) | 3.42 µM | 1.38 µM (inactive) | 5.02 µM (inactive) | 2.04 µM (inactive) | 20.1 µM (inactive) | 3.82 µM (inactive) | 5.24 µM (inactive) | 1.05 µM (active) | 1.5 µM (inactive) | 3.56 µM (inactive) | 3.9 µM (inactive) | 1.86 µM (inactive) | 3.91 µM (inactive) | 1.75 µM (inactive) | 3.03 µM (inactive) |
| CCCCCc1cccc(=O)o1 | 57.9 µM (inactive) | > 100 µM (inactive) | > 100 µM (inactive) | > 100 µM (inactive) | > 100 µM (inactive) | > 100 µM | > 100 µM (inactive) | > 100 µM (inactive) | > 100 µM (inactive) | > 100 µM (inactive) | > 100 µM (inactive) | > 100 µM (inactive) | > 100 µM (inactive) | > 100 µM (inactive) | > 100 µM (inactive) | > 100 µM (inactive) | > 100 µM (inactive) | > 100 µM (inactive) | > 100 µM (inactive) | > 100 µM (inactive) |
| CN(C(=O)c1ccc(OCCCC(=O)O)c(Cl)c1Cl)C1CCCC1 | > 89.5 µM (inactive) | > 28.6 µM (inactive) | > 100 µM (inactive) | > 100 µM (inactive) | > 62.8 µM (inactive) | > 100 µM | > 100 µM (inactive) | > 100 µM (inactive) | > 100 µM (inactive) | > 100 µM (inactive) | > 100 µM (inactive) | > 76.7 µM (inactive) | 42.6 µM (inactive) | > 100 µM (inactive) | > 72.6 µM (inactive) | > 100 µM (inactive) | > 100 µM (inactive) | > 100 µM (inactive) | > 100 µM (inactive) | > 100 µM (inactive) |
